{
  "source": "patent US20180071354A1",
  "about": "“SELECTIVE BREEDING METHOD OF ANTITUMOR/ANTICANCER CAMELLIA SINENSIS STRAIN, AND TEA PRODUCT OF SUCH STRAIN” (FUJIAN AGRICULTURE AND FORESTRY UNIVERSITY, priority 2015, published 2018)",
  "test_system": "human leukemia cell line K562",
  "test": "In vitro antitumor/anticancer testing (CCK-8), K562",
  "type": "cell-based",
  "settings": "48 h, read-out: Percent growth inhibition",
  "experimental": "Each of Tea Product 1 and Conventional Tea Product obtained in section A of this example was used to prepare test tea samples according to the method described below. A proper amount of the respective tea product was added into sterile water to prepare a stock solution with a concentration of 100 mg/mL, followed by using a membrane filter with a pore size of 0.22 μm to conduct vacuum filtration and sterilization. The resulting stock solution was diluted with a respective complete medium shown in Table 3 below to form test tea samples with different concentrations. In other words, the thus obtained test tea samples to be used for treating a respective cancer/tumor cell line shown in Table 3 were prepared using the same complete medium as that for the respective cancer/tumor cell line.\nSpecifically, each of the aforesaid commercially available agents was subjected to the method described below to prepare comparative test samples. A proper amount of a respective commercially available agent was dissolved in phosphate-buffered saline (PBS) to prepare a stock solution with a concentration of 5 mg/mL, followed by using a membrane filter with a pore size of 0.22 μm to conduct vacuum filtration and sterilization. The resulting stock solution was diluted with a respective complete medium shown in Table 3 below to form comparative test samples with different concentrations. To be specific, the comparative test samples prepared from the respective commercially available agent have the concentrations shown in Table 2 below. The thus obtained comparative test samples to be used for treating a respective cancer/tumor cell line shown in Table 3 were prepared using the same complete medium as that for the respective cancer/tumor cell line.\nThe cultivation of each cancer/tumor cell line is described as follows. […] Afterwards, a cell suspension having a cell density of 1.0×10^4 cells/mL was prepared.\nAs experimental groups, the tumor/cancer cells of each cell line were treated with the test tea samples prepared from one or more of the tea products and the comparative test samples prepared from one or more of the commercially available agents as obtained in section B of this example (for more detailed information about the tea product(s) and the commercially available product (s) used to treat each cell line, please see Table 4 below). To be specific, 6 to 10 test tea samples prepared from the same tea product and having different concentrations, as well as 6 to 10 comparative test samples prepared from the same commercially available agent and having different concentrations, were utilized to treat the tumor/cancer cells of each cell line. For each experimental group, 6 repetitions of tumor/cancer treatment were performed. For the control group, 100 μL of PBS was added to a well containing the medium and the cancer/tumor cells of the respective cell line. For the blank group, 100 μL of PBS was added to a well containing a complete medium the same as that used for cultivation of the cancer/tumor cells of the respective cell line.\nAfter the treatment described above, cultivation was conducted in an incubator (37° C., 100% relative humidity, 5% CO2) for 48 hours. Subsequently, the liquid containing the medium and the sample in the well was removed, and a respective complete medium (shown in Table 3 above) containing 10% CCK-8 (Cell Counting Kit-8)(Dojindo Molecular Technologies, Inc., Cat. No. CK04-13) was added. Cultivation was performed in an incubator (37° C.) for 2 to 4 hours, followed by gently shaking.",
  "data": [
    {"smiles": "Cc1ccc(NC(=O)c2ccc(CN3CCN(C)CC3)cc2)cc1Nc1nccc(-c2cccnc2)n1", "note": "[Glivec]", "values": [
      {"measurement": "inhibition at 0.0184 µg/mL", "setting": "0.0184 μg/mL", "value": 17.7, "unit": "%"},
      {"measurement": "inhibition at 0.0369 µg/mL", "setting": "0.0369 μg/mL", "value": 35.7, "unit": "%"},
      {"measurement": "inhibition at 0.0737 µg/mL", "setting": "0.0737 μg/mL", "value": 55.3, "unit": "%"},
      {"measurement": "inhibition at 0.1474 µg/mL", "setting": "0.1474 μg/mL", "value": 66.2, "unit": "%"},
      {"measurement": "inhibition at 0.2949 µg/mL", "setting": "0.2949 μg/mL", "value": 81.5, "unit": "%"},
      {"measurement": "inhibition at 0.5897 µg/mL", "setting": "0.5897 μg/mL", "value": 88.9, "unit": "%"}
    ]}
  ]
}
